Laboratory results published in PMC8037406, “Symbiotic NCR Peptide Fragments Affect the Viability, Morphology and Biofilm Formation of Candida Species” (International Journal of Molecular Sciences, 2021).
Values after ≈ are worked out from the molar mass of the structure shown. Read-outs that look alike come from different tables or passages of the source.

How the values were obtained:
[1] = test system: Candida albicans SC 5314; test: microbe, parasite or virus in culture; format: cell-based; conditions: micro-dilution, YNB medium, 4 × 10^4 cell/mL, 48 h, 30 °C, OD 620 nm, MIC = growth inhibition ≥90%, peptides 25 to 1.56 µM, fluconazole 200 to 0.78 µM, three biological repeats in triplicates; for MIC: Candida albicans, SC5314, read-out: Minimal inhibitory concentration, Ca SC 5314; on all read-outs here: key: -: no growth inhibition was observed
Procedure: (§1) The antifungal activity of all the 14 peptides was tested against the following opportunistic human pathogen Candida species and strains: C. albicans strains ATCC 10231, SC 5314 and SZMC 1458, C. auris 0381, C. glabrata CBS 138, C. parapsilosis CBS 604 and C. tropicalis CBS 94.
(§2) All the Candida strains (Table 4) were grown overnight in YPD medium (1% pepton, 1% dextrose, 0.5% yeast extract) at 30 °C in water bath shaker prior to each experiments. The cells were harvested by centrifugation (5 min, 3000× g) washed twice with sterile distilled water and suspended in 5-fold diluted Difco Yeast Nitrogen Base w/o Amino Acids medium (Becton, Dickinson and Company, Sparks, MD, USA) supplemented with 1% dextrose, referred to as YNB medium in the text. Cells were counted in Bürker chamber and diluted to the proper concentration.
(§3) The growth inhibition of the peptides listed in Table 1 was tested in 96-well microtiter plates on Candida strains. The minimal inhibitory concentration (MIC) was determined with the micro-dilution method by adding 5 µL serially two-fold-diluted peptide solution to 95 µL of cell suspension (4 × 10^4 cell/mL) in YNB medium. After 48 h of incubation at 30 °C the optical density of the cultures was measured at 620 nm in SPECTROstar Nano plate reader (BMG LabTech, Offenburg, Germany). Minimal inhibitory concentration was defined as growth inhibition ≥90% compared to 100% growth of the untreated control. The experiments were carried out in three biological repeats always in triplicates.

[2] = test system: Candida parapsilosis CBS 604; test: microbe, parasite or virus in culture; format: cell-based; conditions: micro-dilution, YNB medium, 4 × 10^4 cell/mL, 48 h, 30 °C, OD 620 nm, MIC = growth inhibition ≥90%, peptides 25 to 1.56 µM, fluconazole 200 to 0.78 µM, three biological repeats in triplicates; for MIC: Lodderomyces parapsilosis, CBS604, read-out: Minimal inhibitory concentration, Cp CBS 604; on all read-outs here: key: -: no growth inhibition was observed
Procedure: as §1, §2, §3

[3] = test system: Candida albicans SZMC 1458; test: microbe, parasite or virus in culture; format: cell-based; conditions: micro-dilution, YNB medium, 4 × 10^4 cell/mL, 48 h, 30 °C, OD 620 nm, MIC = growth inhibition ≥90%, peptides 25 to 1.56 µM, fluconazole 200 to 0.78 µM, three biological repeats in triplicates; for MIC: Candida albicans, SZMC1458, read-out: Minimal inhibitory concentration, Ca SZMC 1458; on all read-outs here: key: -: no growth inhibition was observed
Procedure: as §1, §2, §3

[4] = test system: Candida albicans ATCC 10231; test: microbe, parasite or virus in culture; format: cell-based; conditions: micro-dilution, YNB medium, 4 × 10^4 cell/mL, 48 h, 30 °C, OD 620 nm, MIC = growth inhibition ≥90%, peptides 25 to 1.56 µM, fluconazole 200 to 0.78 µM, three biological repeats in triplicates; for MIC: Candida albicans, ATCC10231, read-out: Minimal inhibitory concentration, Ca ATCC 10231; on all read-outs here: key: -: no growth inhibition was observed
Procedure: as §1, §2, §3

[5] = test system: Candida auris 0381; test: microbe, parasite or virus in culture; format: cell-based; conditions: micro-dilution, YNB medium, 4 × 10^4 cell/mL, 48 h, 30 °C, OD 620 nm, MIC = growth inhibition ≥90%, peptides 25 to 1.56 µM, fluconazole 200 to 0.78 µM, three biological repeats in triplicates; for MIC: Candidozyma auris, 0381, read-out: Minimal inhibitory concentration, Cau 0381; on all read-outs here: key: -: no growth inhibition was observed
Procedure: as §1, §2, §3

[6] = test system: Candida glabrata CBS 138; test: microbe, parasite or virus in culture; format: cell-based; conditions: micro-dilution, YNB medium, 4 × 10^4 cell/mL, 48 h, 30 °C, OD 620 nm, MIC = growth inhibition ≥90%, peptides 25 to 1.56 µM, fluconazole 200 to 0.78 µM, three biological repeats in triplicates; for MIC: Nakaseomyces glabratus, CBS138, read-out: Minimal inhibitory concentration, Cg CBS 138; on all read-outs here: key: -: no growth inhibition was observed
Procedure: as §1, §2, §3

[7] = test system: Candida tropicalis CBS 94; test: microbe, parasite or virus in culture; format: cell-based; conditions: micro-dilution, YNB medium, 4 × 10^4 cell/mL, 48 h, 30 °C, OD 620 nm, MIC = growth inhibition ≥90%, peptides 25 to 1.56 µM, fluconazole 200 to 0.78 µM, three biological repeats in triplicates; for MIC: Candida tropicalis, CBS94, read-out: Minimal inhibitory concentration, Ct CBS 94; on all read-outs here: key: -: no growth inhibition was observed
Procedure: as §1, §2, §3

[8] = test system: C. auris; conditions: for FIC: FIC index = FICA + FICB; for FICA / concentration of drug A for the indicated action: checkerboard, 72 h, 30 °C; for FICA: OD 620 nm
Procedure: Amphotericin B, due to its high toxicity was not included in this assay.
The effects of the different combinations of fluconazole and NCR335C17–33, NCR169C17–38 or NCR169C17–38ox were determined by standard checkerboard titration method. The fluconazole was tested in a concentration range from 6.25 to 75 µM, NCR169C17–38 and NCR169C17–38ox from 0.78 to 12.50 µM, NCR335C17–33 from 1.56 to 25 µM. The initial cell concentration in each well was 4 × 10^4 cell/mL. After the incubation for 72 h at 30 °C, the optical density of the cultures was detected at 620 nm in SPECTROstar Nano plate reader (BMG LabTech, Offenburg, Germany). The inhibitory concentrations were determined for each compound alone and in combinations. The experiments were carried out at least three times. The effect of combinations was evaluated by fractional inhibitory concentration (FIC) index. FIC = FICA + FICB. FICA = (MICA in combination)/(MICA alone); FICB = (MICB in combination)/(MICB alone)

[9] = fluconazole + NCR169C17–38, C. auris
[10] = fluconazole + NCR169C17–38ox, C. auris
[11] = C. auris, drug A fluconazole + drug B NCR169C17–38
[12] = C. auris, drug A fluconazole + drug B NCR335C17–33

| Molecule | Minimal inhibitory concentration, Ca SC 5314 [1] | Minimal inhibitory concentration, Cp CBS 604 [2] | Minimal inhibitory concentration, Ca SZMC 1458 [3] | Minimal inhibitory concentration, Ca ATCC 10231 [4] | Minimal inhibitory concentration, Cau 0381 [5] | Minimal inhibitory concentration, Cg CBS 138 [6] | Minimal inhibitory concentration, Ct CBS 94 [7] | also measured |
| --- | --- | --- | --- | --- | --- | --- | --- | --- |
| C[C@@H]1[C@H](O)[C@@H](C)/C=C/C=C/C=C/C=C/C=C/C=C/C=C/[C@H](O[C@@H]2O[C@H](C)[C@@H](O)[C@H](N)[C@@H]2O)C[C@@H]2O[C@](O)(C[C@@H](O)C[C@@H](O)[C@H](O)CC[C@@H](O)C[C@@H](O)CC(=O)O[C@H]1C)C[C@H](O)[C@H]2C(=O)O [Amphotericin B, amphotericin B, reference compound] |  |  |  |  |  |  |  | MIC [1]: 3.12 µM (≈ 2.88 µg/mL); MIC [2]: 3.12 µM (≈ 2.88 µg/mL); MIC [3]: 3.12 µM (≈ 2.88 µg/mL); MIC [4]: 3.12 µM (≈ 2.88 µg/mL); MIC [5]: 6.25 µM (≈ 5.78 µg/mL); MIC [6]: 1.56 µM (≈ 1.44 µg/mL); MIC [7]: 6.25 µM (≈ 5.78 µg/mL) |
| OC(Cn1cncn1)(Cn1cncn1)c1ccc(F)cc1F [Fluconazole, fluconazole, reference compound] |  |  |  |  |  |  |  | MIC [1]: 12.5 µM (≈ 3.83 µg/mL); MIC [2]: 6.25 µM (≈ 1.91 µg/mL); MIC [3]: 1.56 µM (≈ 0.478 µg/mL); MIC [4]: 200 µM (≈ 61.3 µg/mL); MIC [5]: 25 µM (≈ 7.66 µg/mL); MIC [6]: 200 µM (≈ 61.3 µg/mL); MIC [7]: 100 µM (≈ 30.6 µg/mL); FIC [8, 9]: 0.625; FIC [8, 10]: 0.5; FIC ([8]; fluconazole + NCR335C17–33, C. auris, * fictitious value, could be lower): ≤ 1.125 *; FICA [8, 11]: 0.5; FICA [8, 12]: 1; concentration of drug A for the indicated action [8, 11]: 12.50 µM; concentration of drug A for the indicated action ([8]; C. auris, drug A fluconazole + drug B NCR169C17–38ox): 6.25 µM; concentration of drug A for the indicated action [8, 12]: 25 µM; Action [8, 9]: Additive; Action [8, 10]: Synergism; reduction of MIC in the synergistic combination ([8]; fluconazole + NCR169C17–38ox, C. auris, compared with single use): 4 ×; Action ([8]; fluconazole + NCR335C17–33, C. auris): Indifferent |
| CKTNKDCP [NCR335C9–16, NCR335C fragment 9–16] | - | - | - | - | - | - | - |  |
| FWGQNRNIMKHRGQ [NCR335N16–29, NCR335 N-terminal fragment, amino acids 16–29] | - | - | - | - | - | - | - |  |
| HFSLILSD [NCR335C1–8, NCR335C fragment 1–8] | - | - | - | - | - | - | - |  |
| HFSLILSDCKTNKDCP [NCR335C1–16, NCR335C fragment 1–16] | - | - | - | - | - | - | - |  |
| KLRRANVRCRK [NCR335C17–27, NCR335C fragment 17–27] | - | - | - | - | - | - | - |  |
| RLNTTFRPLNFKMLR [NCR335N1–15, NCR335 N-terminal fragment, amino acids 1–15] | - | - | - | - | - | - | - |  |
